What is called LD50 is the dose at which mortality reaches 50%. Read a low LD50 as greater toxicity. A word on the ED50: it is the midpoint of the dose-response relation.

The source of these data is patent publication US4371545A, “Isopropyl amine compounds” (Dolorgiet Beteiligungs GmbH, priority 1978, dated 1983).

The subject of data set [1] is isoprenalin-induced drop in arterial blood pressure. The data set is described as follows: Reduction of isoprenalin-induced drop in arterial blood pressure in anaesthetized cats. The following applies: for m BP Isopr. (reduction in mean, isoprenalin-induced drop in arterial blood pressure): i.v., qualitative, 10 to 100 ug/kg; for isoprenalin-induced drop in arterial blood pressure: summary in words. It is filed as in vivo, cat.

The nature of data set [2]: Acute toxicity (Litchfield and Wilcoxon). The following applies: in vivo. The method, then: The acute toxicity of the inventive compound is determined by the method of Litchfield and Wilcoxon (J. Pharmacol. exp. Therap., 96 (1949), 99).
The subject of a further data set is β-adrenergic. The data set is described as follows: β-adrenergic blocking activity in mammals. It is filed as in vivo. The settings on record: mammals such as mice, rats and cats. The text has this: It is also to be expected that the above compound will have similar effects when administered to humans.
In data set [3] the test system is heart beat frequency in resting position. The data set is described as follows: Effect on heart beat frequency in resting position in anaesthetized cats. The settings on record: for HR norm (bradycardial effect, heart beat frequency in resting position): anaesthetized cats, i.v., qualitative, 10 to 100 ug/kg. The class given is in vivo, cat. An excerpt: (§1) To provide an informative determination of the ED50 of the test preparation on isoprenalin-induced tachycardia of anaesthetized cats as well as qualitative determination of the characteristic effect of the preparation on blood pressure and heart beat frequency in resting position.
(§2) Anaesthetic: hexobarbital (Evipan-Na),
(§3) tromanometer; heart frequency
(§4) by means of the pulse wave
(§5) interval, using an HSE-EKA
(§6) sphygmograph or HSE frequency
(§7) The remaining data in the table refer to the characteristic effect of the test preparation on the heart beat frequency in resting position, arterial blood pressure in resting position, and reduction of isoprenalin-induced drop in blood pressure; the respective data are more of qualitative nature.

Data set [4] concerns isoprenalin-induced tachycardia. The data set is described as follows: Inhibition of isoprenalin-induced tachycardia in anaesthetized cats. The class given is in vivo, cat. The settings on record: for ED50: Felis catus, iv, graphic extrapolation on dose-effect curve, read-out: ED50 (reduction of isoprenalin-induced tachycardia by 50%). How it is done: A comparative screening test was conducted on anaestetized cats suffering from isoprenalin-induced tachycardia.
as §1
3.2 Test animals: male and female cats,
weighing 1.6 to 3.2 kg, un-
as §2
Respiration: spontaneous after tracheo-
femoralis for injection of
the test preparations; ca-
(§8) theterization of A. femo-
(§9) ralis for measuring arterial
(§10) blood pressure; blood coagu-
sodium heparinate, 600 units
(§11) phase and mean blood press-
(§12) ure, using a Statham press-
(§13) ure gauge and an HSE elec-
as §3, §4, §5, §6
3.3.2 Administration of the
Isoprenalin: i.v. injection; dose 0.3 to
1 μg/kg; volume administer-
ed: 0.1 ml/kg; intervals bet-
ween injections; 10 min.
i.v. injections, each 4 min.
prior to the next isoprenalin
injection; dosage range: 10
to 100 μg/kg and, respect.,
injection time: 10 sec.
3.3.3 Criteria determining
percentage reduction in iso-
prenalin-induced tachycardia;
measured at maximum efficien-
cy (4 min. after injection).
ED50 is determined by graph-
ic extrapolation on the
curves showing the effect-
iveness of the dose admini-
stered. ED50 means the dose
(μg/kg i.v.) required for
reducing tachycardia by
50% as compared to the ori-
Table 1 informs on the results of the above experiments. The quantitative criteria in this table are: reduction of isoprenalin-induced tachycardia in percent; ED50 determined by graphic extrapolation on the curve showing the effectiveness of the respective dose; and relative activity which may be calculated as quotient from the ED50 (μg/kg) of propranolol and the ED50 of the test preparation.

The test system of data set [5] is mean arterial blood pressure in resting position. The data set is described as follows: Effect on mean arterial blood pressure in resting position in anaesthetized cats. The class given is in vivo, cat. The following applies: i.v., qualitative, 10 to 100 ug/kg.
Text: as §1, §2, §8, §9, §10, §11, §12, §13, §3, §7

SMILES strings stand for the structures.

Consider `Cc1ccc([N+](=O)[O-])c(OCC(O)CNC(C)C)c1.Cl` (centres unmarked) [Compound of the invention, 1-(5-methyl-2-nitrophenoxy)-2-hydroxy-3-isopropylaminopropane-hydrochloride], for which the “m BP Isopr. (reduction in mean, isoprenalin-induced drop in arterial blood pressure)” value in data set [1] is “+ - +++R and d.d”. Further, in data set [1], the “isoprenalin-induced drop in arterial blood pressure” value is “reliably reduced and blocked”. Further, the LD50 in data set [2] (ip, mouse, female and male, in each case 10 female and male mice) amounted to 250 mg/kg; in data set [2] (iv, mouse, female and male, in each case 10 female and male mice), 105 mg/kg; in data set [2] (po, mouse, female and male, in each case 10 female and male mice), 1280 mg/kg; in data set [2] (rat, ip, female and male), 192 mg/kg; in data set [2] (rat, iv, female), 68.9 mg/kg; in data set [2] (rat, iv, male), 80 mg/kg. Moreover, the LD50 in data set [2] (rat, po, female and male) came out at 1120 mg/kg. Besides, in the data set on β-adrenergic, the β-adrenergic blocking activity result is “demonstrated”. In addition, the “HR norm (bradycardial effect, heart beat frequency in resting position)” value in data set [3] is “+ - +++ and d.d”. The “reduction of frequency of heart beat in resting position” value in data set [3] (depending on the original position and the dose administered) is “effectively reduced”. In addition, the ED50 in data set [4] (anaesthetized cats) was 0.021 mg/kg. For the same compound, the “Rel. Activity (ED50 of propranolol / ED50 of test preparation)” value in data set [4] (based on ED50 of propranolol (=1)) is given as 2.3. In addition, in data set [4] (compared to propranolol, anaesthetized cats), the “beta-blocking activity in the tests on isoprenalin-induced tachycardia” value was “good beta-blocking activity”.

Take `CC(C)NCC(O)COc1cccc2ccccc12` (centres unmarked) [Propranolol, reference compound]: in data set [1], the “m BP Isopr. (reduction in mean, isoprenalin-induced drop in arterial blood pressure)” value is “+ - +++R and d.d”; the “isoprenalin-induced drop in arterial blood pressure” value is “reliably reduced and blocked”. In addition, the “HR norm (bradycardial effect, heart beat frequency in resting position)” value in data set [3] was “+ - +++ and d.d”. For the same compound, in data set [5], the “m BP norm (effectiveness in lowering blood pressure, mean arterial pressure in resting position)” value was “+ - ++ and d.d”. Moreover, the ED50 in data set [4] (anaesthetized cats) is 0.048 mg/kg.
